Experimental data reported in US20180273534A1, “PYRAZOLOPYRIDINE SULFONAMIDES AS NEMATICIDES” (BAYER CROPSCIENCE AKTIENGESELLSCHAFT, priority 2014, published 2018).

What was measured:
Format in all cases: in vivo
Meloidogyne incognita [1] = assay: Meloidogyne incognita test (sand, salad seedlings, gall formation); details: application rate 20 ppm, after 14 days, 100% = no galls, 0% = galls equal to untreated control
Procedure: Meloidogyne Incognita—Test
Solvent: 125.0 parts by weight of acetone
To produce a suitable preparation of active compound, 1 part by weight of active compound is mixed with the stated amount of solvent, and the concentrate is diluted with water to the desired concentration.
Vessels are filled with sand, a solution of the active ingredient, a suspension containing eggs and larvae of the southern root-knot nematode (Meloidogyne incognita) and salad seeds. The salad seeds germinate and the seedlings grow. Galls develop in the roots.
After 14 days the nematicidal activity is determined on the basis of the percentage of gall formation. 100% means no galls were found and 0% means the number of galls found on the roots of the treated plants was equal to that in untreated control plants.

Myzus persicae = Myzus persicae spray test; details: application rate 500 g/ha; after 6 days; sprayed Chinese cabbage leaf disks; 100% = all aphids killed
Procedure: Myzus Persicae—Spray Test
(§1) Solvent: 78.0 parts by weight acetone • 1.5 parts by weight dimethylformamide
(§2) Emulsifier: alkylarylpolyglycol ether
(§3) To produce a suitable preparation of active compound, 1 part by weight of active compound is mixed with the stated amount of solvents and is diluted with water, containing an emulsifier concentration of 1000 ppm, to the desired concentration. Further test concentrations are prepared by dilution with emulsifier containing water.
Chinese cabbage (Brassica pekinensis) leaf disks infected with all instars of the green peach aphid (Myzus persicae), are sprayed with a preparation of the active ingredient of the desired concentration.
After 6 days mortality in % is determined. 100% means all aphids have been killed and 0% means none of the aphids have been killed.

Tetranychus urticae = Tetranychus urticae spray test OP-resistant; details: application rate 500 g/ha, after 6 days, sprayed French bean leaf disks, 100% = all spider mites killed
Procedure: Tetranvechus urticae—spray test OP-resistant
as §1, §2, §3
French bean (Phaseolus vulgaris) leaf disks which are heavily infested with all stages of the two spotted spidermite (Tetranychus urticae), are sprayed with a preparation of the active ingredient of the desired concentration.
After 6 days mortality in % is determined. 100% means all spider mites have been killed and 0% means none of the spider mites have been killed.

Meloidogyne incognita [2] = assay: Meloidogyne incognita test (soil drench, loamy sand, gall formation); details: application rate 8 ppm, after 21 days, salad seedlings, 100% = no galls
Procedure: Meloidogyne incognita—Test
Solvent: 7 parts by weight of dimethylformamide
Emulsifier: 2.5 parts by weight of alkylarylpolyglycolether
To produce a suitable preparation of active compound, 1 part by weight of active compound is mixed with the stated amount of solvent and emulsifier and is diluted with water to the desired concentration. In the calculation of the concentration the soil volume has to be included. […] Further test concentrations are prepared by dilution with water.
The compound solution is poured into pots filled with soil (loamy sand). A suspension containing eggs and larvae of the southern root-knot nematode (Meloidogyne incognita) is added, salad seeds are spread on the soil surface and covered with quartz sand. The salad seeds germinate and the seedlings grow. Galls develop on the roots.
After 21 days the nematicidal activity is determined on the basis of the percentage of gall formation. 100% means no galls were found; 0% means the number of galls found on the roots of the treated plants was equal to that in untreated control plants.

Row | SMILES | nematicidal activity on the basis of the percentage of gall formation (Meloidogyne incognita [1]) | mortality (Myzus persicae) | mortality (Tetranychus urticae) | nematicidal activity on the basis of the percentage of gall formation (Meloidogyne incognita [2])
1 | CS(=O)(=O)NC(=O)c1cc2c(Cl)cc(C(F)(F)F)cn2n1 [Example I-15] | 90% | 100% | 85% | 
2 | O=C(NS(=O)(=O)c1ccccc1Cl)c1cc2cc(Cl)cc(Cl)n2n1 [Example I-46] | 90% | 90% |  | 
3 | O=C(NS(=O)(=O)c1cc(Cl)ccc1Cl)c1cc2cc(Cl)cc(Cl)n2n1 [Example I-47] |  |  |  | 80%
